These results are taken from patent US4473497A, “Pharmacologically active peptides” (Eli Lilly and Company, priority 1983, dated 1984).

In test [1] the test system is Cox Standard albino mice. Description: mouse writhing test (acetic acid induced). Format: in vivo. The following applies: 0.6% acetic acid i.p. The procedure:
In the mouse writhing test, a writhing response is defined as a contraction of the abdominal musculature followed by extension of the hind limbs. Acetic acid administered intraperitoneally (10 ml./kg.) at a concentration of 0.6% was used to induce a writhing response. Five Cox Standard albino mice weighing 20-22 g. after being fasted overnight were observed simultaneously for the writhing response. Each mouse was used only once. The observation period was ten minutes and started five minutes following administration of the acetic acid. Inhibition of mouse writhing was calculated from the total number of writhes in the control and test compound-treated groups according to the following formula: [formula]
The dose required to reduce the frequency of writhing by 50% is defined as the ED50 and is calculated by "The Use of Regression Line in Reverse", [Brownlee, K. A., Statistical Theory and Methodology in Science and Engineering, 2nd Ed., New York, John Wiley and Sons (1965)].
For orientation: In writhing tests, fewer writhes than in controls are read as antinociception.

In test [2] the test system is mouse (Harlan ND4). As to the kind of experiment: mouse hot plate test (Mouse Jump test). The test is classed as in vivo. The following applies: subcutaneous injection, 15 minutes after administration, hot plate 55° C., latency to jump. How it is done: In the mouse hot plate test, an upright acrylic cylinder comprising, as its base, a hot plate surface which is maintained at 55° C. is used. A mouse (Harlan ND4) is given, by subcutaneous injection, a predetermined amount of test compound dissolved or suspended in a suitable carrier, and, 15 minutes after administration of the test compound, the mouse is placed on the hot plate surface. The latency in seconds until the mouse jumps from the hot plate surface is measured. […] This must occur in a dose range which produces no motor incoordination or incapacitation. The following Table records ED50 results obtained from this test. By the term "ED50 " is meant that dose which produces analgesia in 50% of the mice tested. Analgesia is defined as a response latency in the presence of test compound that is equal to or greater than the control response latency plus two standard deviations. The percent analgesia data are converted to probits, and the ED50 is calculated by regression analysis of the dose-response data. Each dose response curve must have at least four points, and each point is determined using data from a minimum of ten treated mice and ten control mice.
(In general: Hot-plate and tail-flick tests time the reaction to a heat stimulus.)

As for “L-(N-Methyl)tyrosyl-D-alanylglycine, [N-ethyl-N-(1-benzyl-2-dimethyloxidoamino)ethyl] amide, Diacetate Salt”, the “ED50 in the Mouse Writhing test (dose reducing frequency of writhing by 50%)” value worked out at 5.6 mg/kg in test [1] (oral administration) and 0.1 mg/kg in test [1] (subcutaneous administration). Further, the “ED50 in the Mouse Jump test (dose which produces analgesia in 50% of the mice)” value in test [2] was 0.0025 mg/kg.
